In data set [1] the test system is general cellular transcription/translation (R-Luc). The data set is described as follows: Dual-reporter assay, R-Luc in bl-DTR cells. In kind it is cell-based. Conditions: doxycycline, 24 h. The procedure: (§1) Fig 1 (A) (Top panel) Schematic representation of the primary compound screening using a dual-reporter system. […] (B). […] (Top graphs) bl-DTR cells (1 × 10^4) were treated with twofold serial dilutions of each compound before doxycycline (Dox) addition (final concentration, 50 ng/mL). After 24 h of treatment, the activities of firefly luciferase (F-Luc, red line) and Renilla luciferase (R-Luc, blue line) were determined using the Dual-Glo Luciferase assay system. (Bottom graphs) TZM-bl cells were treated with each indicated compound and subsequently infected with the HIV-1NL4-3 strain at a multiplicity of infection (MOI) of 1. At 48 h after infection, the viral infectivity (purple line) and cell viability (green line) were determined using the Bright-Glo luciferase assay kit and the PrestoBlue Cell Viability Reagent, respectively. […] (C). […] The targeted moieties for the SAR study are marked with dotted-circle lines.
(§2) The Tzm-bl-derived dual Tat reporter; TZM-bl/Tat/Rluc (bl-DTR) cells were established from TZM-bl cells using two Dox-inducible lentiviral expression cassettes cloned with Flag-tagged Tat86 and the R-Luc gene, as described in our previous study ([11]). TZM-bl, A3.01, J1.1, and J-Lat 6.3 cells as well as the HIV-1 molecular clone pNL4-3, pNL(AD8), ARV-resistant HIV-1 strains, and HIV-1NL43-IRES-eGFP (pBR43IeG-nef^+, gifted by Dr. Frank Kirchhoff) ([52]) were provided by the National Institute of Health HIV Reagent Program (NIH, Bethesda, MD, USA). HeLa (CCL-2) and 293T (CRL-3216) cell lines were purchased from the American Type Culture Collection (ATCC, Manassas, VA, USA). The bl-DTR, TZM-bl, HeLa, and 293T cells were cultured in Dulbecco’s modified Eagle’s medium supplemented with 1% penicillin–streptomycin and 10% (vol/vol) heat-inactivated fetal bovine serum (all from Gibco-BRL, Gaithersburg, MD, USA), and 1 µg/mL of puromycin and 200 µg/mL of zeocin were additionally supplemented for the bl-DTR cells. PBMCs were purchased from AllCells (Alameda, CA, USA) and cultured as previously described ([12]). The information on ARV-resistant HIV-1 strains was described in previous reports as follows: NNRTI-resistant 12241 and 12243 ([53]); NRTI-resistant 7396, 7406, and 7407 ([54]); INSTI-resistant 11847 and 11849 ([55], [56]); and PI-resistant 11800 and 11803 ([57]). Each molecular HIV-1 clone was transfected to 293T cells, as previously described ([58]), to obtain infectious HIV-1 particles. Virus-containing cell culture supernatants were collected 3 days after transfection, and filtered through a 0.45-µm membrane filter (Millipore Sigma, Burlington, MA, USA) to remove cell debris. The viral titration was performed as described previously ([59]) with some minor modifications. In brief, 1 × 10^4 TZM-bl cells seeded in 96-well plates were infected with 200 µL of virus-containing medium diluted serially twofold. The incubation was for 2 days and the experiment was performed in triplicate; the infection time minimized the virus spread ([59]). The titration of the infectious viral particles was performed with a ß-Gal staining assay using the ßeta-Galactosidase Staining Kit (Mirus Bio, Madison, WI, USA) following the manufacturer’s protocols. In brief, the infected cells were washed with phosphate-buffered saline (PBS) and fixed using a Cell Fixative Working solution. The cells were washed with PBS and stained using the Cell Staining Working Solution containing X-gal. The infected blue-colored cells were counted under a microscope (100× magnification). The infectious virus titer was determined as a mean value of blue-colored cells count × dilution factor and used for determining the multiplicity of infection (MOI) in each infection experiment.
Background: Reporter assays use an easily measured gene product as a stand-in for the process of interest.

For another data set, the system named is TZM-bl cells. Description: Cell viability of TZM-bl cells (PrestoBlue). In kind it is cell-based.
The subject of data set [2] is Tat-mediated LTR transcription. Description: Dual-reporter assay, F-Luc (Tat-mediated LTR transcription) in bl-DTR cells. In kind it is cell-based, HIV-1. The following applies: bl-DTR cells, doxycycline 50 ng/mL, 24 h; mean ± SD; read-out: IC50 of F-Luc (Tat). As for the experimental part: as §1, §2
The test system of data set [3] is HIV-1NL4-3. The data set is described as follows: HIV-1 infectivity in TZM-bl cells (F-Luc). In kind it is cell-based. Conditions: for EC50: read-out: EC50.
The subject of data set [4] is INSTI-resistant HIV-1 strain 11847. Description: microbe, parasite or virus in culture. The following applies: Human immunodeficiency virus 1, TZM-bl. In kind it is cell-based.
Data set [5] concerns INSTI-resistant HIV-1 strain 11849. The data set is described as follows: microbe, parasite or virus in culture. The following applies: Human immunodeficiency virus 1, TZM-bl. In kind it is cell-based.
Data set [6] concerns HIV-1NL4-3. Description: Time-of-addition assay in TZM-bl cells. In kind it is cell-based. Conditions: HIV-1NL4-3 MOI 1, 9 and 13 1.5 μM, T-20 1 µM, triptolide 5 nM, ARVs 1 µM, F-Luc at 54 h. As for the experimental part:
Fig 5 (A) Time-of-addition assay. […] Subsequently, the cells were treated with the compounds at the indicated time points (0, 1, 2, 4, 6, 8, 10, 12, 24, 30, 36, 42, and 48 h) after HIV-1 infection. The final concentrations of compounds are described in Materials and Methods. Viral activity according to the timing of drug addition was measured as F-Luc activity at 54 h after infection. The relative activities are represented as the mean ± SD (n = 3) compared with the activity observed 54 h post-infection. The relative time frames associated with each HIV-1 infection step are defined based on the time frame of susceptibility to the drug that blocks that particular infection step. […] At 16 h after infection, the viral reverse transcription (RT) product (viral cDNA) level was determined by quantitative real-time PCR (RT-qPCR) using gag and 18S rRNA primer sets and represented as the mean ± SD (n = 3) normalized against the amount of the 18S rRNA compared with the DMSO control. **P < 0.01 compared with the vehicle (DMSO). (C) An in vitro integrase (IN) assay was performed with 10 µM of the indicated compounds following the manufacturer’s protocol. **P < 0.01 compared with vehicle (DMSO). (D) A3.01 cells were infected with HIV-1 upon treatment with the indicated compounds (5 µM) and ARVs (EFV and DTG) as the experimental controls. At 40 h after infection, cellular chromosomal DNA was purified, and the integrated proviral DNA was detected through nested Alu-PCR amplification.
A time-of-addition assay was performed as previously described ([25]) with minor modifications. […] Reference drug and test compounds were subsequently added at the indicated time (0, 1, 2, 4, 6, 8, 10, 12, 24, 30, 36, 42, and 48 h after infection). Final concentrations were as follows: compounds 9 and 13 (1.5 μM), T-20 (1 µM), Triptolide (5 nM), and ARVs (AZT, EFV, DTG, RAL) (1 µM). The viral activity according to the timing of drug addition was measured using a Bright Glo luciferase assay kit (Promega). Virus activity curves present a % activity relative to the activity observed at 54 h after infection, and the data are presented as the mean ± standard deviation (SD) (n = 3). The relative time frame associated with each HIV-1 infection step was defined based on the sensitivity to each drug that blocks a particular infection step.

Here are results for 3 molecules from article PMC11459959, “Discovery of new acetamide derivatives of 5-indole-1,3,4-oxadiazol-2-thiol as inhibitors of HIV-1 Tat-mediated viral transcription” (Antimicrobial Agents and Chemotherapy, 2024).

Like-named read-outs stand apart in the source and are kept apart here.

For `Cc1[nH]c2ccc(-c3nnc(SC(C)C(=O)N4CCCC4)n3CCc3ccccc3)cc2c1C` (centres unmarked) [Compound 32, 2-((5-(2,3-Dimethyl-1H-indol-5-yl)-4-phenethyl-4H-1,2,4-triazol-3-yl)thio)-1-(pyrrolidin-1-yl)propan-1-one], the “Relative R-Luc activity at IC50 of F-Luc” value in data set [1] is reported as 90. Further, the CC50 in the data set on TZM-bl cells (human, 48 h) came out at 63.20 ± 2.65 µM.
Consider “5-(2,3-Dimethyl-1H-indol-5-yl)-4-phenethyl-4H-1,2,4-triazole-3-thiol [Compound 29]”, for which, in data set [2], the IC50 was determined as 0.43 ± 0.03 µM. Also, the “Relative R-Luc activity at IC50 of F-Luc” value in data set [1] is 90. The “SI (CC50/EC50)” value with HIV-1NL4-3 [3] (TZM-bl cells) was determined as 164.33. Also, the EC50 in the data set on HIV-1NL4-3 [3] (TZM-bl cells infected with HIV-1NL4-3 at MOI 1, 48 h, F-Luc, mean ± SD) amounted to 0.39 ± 0.03 µM. Besides, the CC50 with TZM-bl cells (TZM-bl cells, absence of HIV-1 infection, mean ± SD, read-out: CC50) worked out at 64.1 ± 6.31 µM.
As for `Cc1nnc(C(=O)NC(C)(C)c2nc(C(=O)NCc3ccc(F)cc3)c(O)c(=O)n2C)o1` [RAL, raltegravir, reference compound], the EC50 with HIV-1NL4-3 [3] (Human immunodeficiency virus 1, TZM-bl, Table S1, WT virus, TZM-bl) is below 0.001 µM; in data set [4], 4.99 ± 0.2 µM; in data set [5], 14.3 ± 2.59 µM. Further, the “time of administration after infection at which effectiveness began to decrease / was lost” value with HIV-1NL4-3 [6] was 10 h.

As usually defined, the CC50 is the concentration at which the toxic effect on the cells reaches its halfway point. Usually IC50 stands for the point on the concentration scale where inhibition reaches its midpoint. For orientation: EC50 means the concentration at which the effect is half-maximal.
